Assay results reported in patent US12642769B2, “Delivery carrier into cell” (Kabusikikaisya ITO, priority 2019, dated 2026).
Read-outs that look alike come from different tables or passages of the source. Each block holds one compound with its values, some of them ahead of it.

Columns and labels:
[1] = format: physicochemical; details: for Remaining rate: buffer; for Evaluation results: 0.02 mol/L in purified water, 50° C., one month
Experimental: APS, APPS, and EPC so that the concentration of each ascorbate derivative is 0.02 mol/L. Dissolve them in purified water and store them at 50° C. for one month to determine their potency in a high performance liquid The starting titers of each substance were measured by chromatography, and the results after one month were used as the starting titer of 100%. If more than 95% of the result was remaining in the material, it is ∘, and if less than 95% or more than 80% of the result was less than 95%, it is […]. […] Sodium ascorbic acid-2-phosphate: APS; Sodium ascorbic acid-2-phosphate-6-palmitate 3: APPS; Potassium tocopheryl ascorbic acid-2-phosphate: EPC; ascorbic acid: AA.

[2] = format: physicochemical; details: for Remaining rate: buffer; for Evaluation results: 0.5% by weight in purified water, defoaming time
Experimental: The ascorbic acid derivatives of APS, APPS, EPC, and AA were dissolved in purified water at a concentration of 0.5% by weight, and the time to defoam the bubbles was measured with a sponge under the same conditions. The results are shown in Table 14, where the defoaming time of the APPS with the longest defoaming time was set to 100% and the defoaming time of each was calculated as a percentage, with 90% or more being considered O (best), 80% or more to 90% or less being considered B (good), and 80% or less being considered X (poor). Description of abbreviations: ascorbic acid-2-phosphateNa:APS, ascorbic acid-2-phosphate-6-palmitate3Na:APPS, ascorbic acid-2-tocopheryl potassium:EPC, ascorbic acid:AA.

[3] = system: normal human epidermal fibroblasts; test: cell uptake of Rhodamine B from temperature-responsive liposome carriers with different vitamin derivatives; format: cell-based; details: EPC-added groups set to 100%, liposome carrier with DOPEMP (NIPAA/DMAPAA 5%) Cop, rhodamine 1 μM, 35° C. 1 hour, 40° C. 20 min
Experimental: The total amount of the next lipid was 20 mg, the molar ratio of (lipid 1,2-diore oil-3-trimethylammonium propane):(total weight of lamella-forming surfactant diore oil phosphatidylethanolamine and DOPEMP (NIPAA/DMAPAA 5%) Cop) was 3:7. Each was dissolved in chloroform. Further, the fluorescent dye Rhodamine B (1 mg) was added and dissolved. The lower limit critical dissolution temperature of DOPEMP (NIPAA/DMAPAA 5%) Cop used in this experiment in water was 40° C. The molar ratio of (dioleoylphosphatidylethanolamine: DOPEMP (NIPAA/DMAPAA) Cop.) added by total weight was 6.5:0.5.
The solution was transferred to an eggplant flask and the solvent was blown off by an evaporator to prepare a lipid film. EPC, APPS, APS and AA (ascorbic acid), which are […] of Vitamin derivatives having different ATG activity and CTS activity (hereinafter abbreviated as ATG-CTS activity), were prepared. To this lipid film, EPC, APPS, APS and AA (5 mg each) dissolved in PBS (1 ml) were added. The lipid film was hydrated and then dispersed by vortexing. After that, sonication was performed for 30 minutes in an ultrasonic bath to reduce the size of the liposome, and then the liposome was passed through a 200 nm filter using an extruder to adjust the size of the liposome. The average particle size of the examples and comparative examples was 111 nm±10 nm. Then, the liposomes were separated and purified by gel filtration. By the above method, a Delivery carrier into cell of the present invention containing an ATG-CTS activator, a temperature-responsive polymer and a hydrocarbon was prepared.
Next, normal human epidermal fibroblasts were cultured in DMEM (low glucose) containing 5% FBS for 24 hours at 37° C. at a density of 5×10^5 cell/well in 6-well plates, and then the medium containing four delivery carrier into the cell (added to achieve a final rhodamine concentration of 1 μM), including the embodiments and comparative examples prepared as described above, was exchanged for each medium and cultured at 35° C. for 1 hour. After that, it was incubated at 40° C. for 20 min, and then at 35° C. for 1 h. It was then washed five times with PBS and immobilized with 4% paraformaldehyde phosphate buffer solution for 20 min, washed twice with PBS again, and the relative concentration of the fluorescent material taken up into the cell was determined by measuring the fluorescence intensity with a fluorescent microplate reader. cell of delivery carrier into the cell without vitamin derivatives were also cultured in the same way as additive-free controls and the fluorescence intensity was measured.

[4] = system: normal human epidermal fibroblasts; test: cell uptake of rhodamine B from carriers without stimulus-responsive polymers; format: cell-based; details: EPC set at 100%; carrier without stimulus-responsive polymers; vitamin derivative 200 μM; 37° C. 1 hour
Experimental: Create a Delivery carrier into cell in a comparison experiment To investigate the effects of vitamin derivatives with different ATG-CTS activities on cell uptake, the following experiments were performed on delivery carrier into the cell without stimulus-responsive polymers. Six g of glycerin, 1 g of sodium cocoyl glutamate, and 1 g each of three vitamin derivatives (PA, APPS, and EPC) with different ATG-CTS activities were mixed with an electric hand mixer, and 0.1 g of rhodamine B, a fluorescent dye, was added to 20 g of jojoba oil and stirred for 20 minutes. To this, PBS was added to 100 g and stirred for 10 minutes with an electric hand mixer to prevent foaming. 3 types of cell carriers were obtained by completely dispersing them. A Delivery carrier into cell of vitamin derivative-free was also created using the same method as an additive-free control.
Normal human epidermal fibroblasts were incubated in DMEM (low glucose) containing 5% FBS at a density of 5×10^5 cell/well at 37° C. for 24 hours in 6-well plates, and then the medium containing the three delivery carrier into the cell of the invention (final concentration of PA, APPS, and EPC was added to 200 μM each) was replaced with the medium prepared as described above and incubated at 37° C. for 1 hour. Then, the cell were washed five times with PBS and immobilized with 4% paraformaldehyde phosphate buffer solution for 20 min, washed twice with PBS again, and the relative concentration of the fluorescent material taken up into the cell was determined by measuring the fluorescence intensity at the excitation wavelength of 555 (nm) and the fluorescence wavelength of 580 (nm) with a fluorescent microplate reader. cell of delivery carrier into the cell without vitamin derivatives were also cultured in the same way as additive-free controls and the fluorescence intensity was measured.

[5] = concentration in the formulation increased to 1%
HMV-II cell [6] = test: Melanin production inhibition test; format: cell-based; details: 200 μM, no carrier
Experimental: Pre-treatment: The following melanin production inhibition tests were performed using A-2, B-2, C-2, and D-2 pH-responsive delivery carrier into the cell (A-3, B-3, C-3, and D-3): HMV-II cell were seeded in 24 well dishes at a concentration of 1×10^5 cell/mL, incubated for 24 hours, and then added 200 μM of IBMX and A-3, B-3, C-3, and D-3 pH-responsive delivery carrier into the cell (A-3, B-3, C-3, and D-3) at an APS concentration of 100 μM. 2 hours later, the cell were washed with PBS, 200 μM of IBMX was added again, and incubated for 70 hours. The cell were then solubilized with 200 μL of NaOH at 1 mol/L, and melanin was extracted and quantified by measuring the absorbance at 405 nm. The melanin production was increased about 3-fold by the addition of IBMX (no carrier for pH-responsive cell delivery). When the amount of melanin produced at this time was assumed to be 100%, the amount of melanin produced by A-3 addition of the invention was 48%, B-3 was 78%, C-3 was 85%, and D-3 was 90%.

HMV-II cell [7] = test: Cellular damage assessment (Cell Counting Kit-8); format: cell-based; details: Cell Counting Kit-8, absorbance at 450 nm
Experimental: HMV-II cell were seeded at a concentration of 1×10^5 cell/mL in 500 μL/well on a 6-well plate. After incubation for 24 hours, 200 μM of IBM X, a melanin-producing stimulant, was added. APS was added to 100 μM for each pH-responsive delivery carrier into cell of A-3, B-3, C-3, and D-3. 2 hours later, the cell were washed with PBS, 200 μM of IVMX was added again, and incubated for 70 hours. To this, 10 μL of Cell Counting Kit-8 was added, and the cytotoxicity of sample addition was compared by measuring absorbance at 450 nm after 1 h of incubation.

[8] = lower critical dissolution temperature in water; format: physicochemical
Experimental: The lower critical dissolution temperature of the temperature-stimuli-responsive polymer-containing molecules in the present invention in water should be between a temperature close to body temperature and 70° C., which is the maximum temperature for carrier transportation in summer during product distribution (e.g., 35.0 to 70.0° C.). On the other hand, for the temperature-responsive polymer of the present invention, even if the lower critical dissolution temperature is near body temperature, it is easier to suppress cell death after delivery into cells if the temperature is as high as possible. […] In the present invention, the lower critical dissolution temperature of the temperature-responsive polymer in water is measured by differential scanning calorimetry (DSC).
For this reason, the lower critical dissolution temperature of the conventional temperature-stimulus-responsive-polymer containing molecules is preferred to be 37-42° C., which is close to the body temperature. […] In the present invention, the lower critical dissolution temperature of the temperature-stimulus-responsive polymer in water is measured by differential scanning calorimetry (DSC).

Remaining rate ([1]; 1 month, 0.02 mol/L): 56% | Remaining rate [2]: 1%
Compound: O=C1O[C@H]([C@@H](O)CO)C(O)=C1O [AA, ascorbic acid, reference compound]
fluorescence intensity (fluorescent material taken up into the cell) [3]: 52%

Remaining rate [1]: 78% | Evaluation results [2]: ○ | Remaining rate [2]: 100%
Compound: CCCCCCCCCCCCCCCC(=O)OC[C@H](O)C1OC(=O)C(OP(=O)([O-])[O-])=C1[O-].[Na+].[Na+].[Na+] (stereo partly drawn) [APPS, Sodium ascorbic acid-2-phosphate-6-palmitate 3]
fluorescence intensity (fluorescent material taken up into the cell) [4]: 76% | fluorescence intensity (fluorescent material taken up into the cell) [3]: 78%

Evaluation results [1]: Δ | Remaining rate ([1]; 1 month, 0.02 mol/L): 91% | Remaining rate [2]: 3%
Compound: O=C1O[C@H]([C@@H](O)CO)C(O)=C1OP(=O)([O-])[O-].[Na+].[Na+] [APS, Sodium ascorbic acid-2-phosphate]
fluorescence intensity (fluorescent material taken up into the cell) [3]: 49%

Evaluation results [1]: ○ | Remaining rate [1]: 96% | Evaluation results [2]: Δ | Remaining rate [2]: 85%
Compound: Cc1c(C)c2c(c(C)c1OP(=O)([O-])OC1=C(O)[C@@H]([C@@H](O)CO)OC1=O)CC[C@@](C)(CCC[C@H](C)CCC[C@H](C)CCCC(C)C)O2.[K+] [EPC, Potassium tocopheryl ascorbic acid-2-phosphate]
fluorescence intensity (fluorescent material taken up into the cell) [4]: 100% | fluorescence intensity (fluorescent material taken up into the cell) [3]: 100%

Compound: CCCCCCCC(=O)OC1=C(OCC(O)CO)C(=O)OC1C(O)CO (stereo not drawn) [GOVC, 2-glyceryl-3-Caprylyl ascorbate]
skin irritation [5]: no skin irritation was observed

Compound: CC(C)Cn1c(=O)n(C)c(=O)c2[nH]cnc21 [IBMX]
increase of melanin production (HMV-II cell [6]): about 3 fold | cytotoxicity (HMV-II cell [7]): cytotoxicity was confirmed

Compound: CCCCCCCC(=O)OC1=C(OCC(O)CO)C(C(O)CO)OC1=O (stereo not drawn) [OGVC, 3-glyceryl-2-Caprylyl ascorbate]
skin irritation [5]: no skin irritation was observed

Compound: CCCCCCCCCCCCCCCC(=O)OC[C@H](O)[C@H]1OC(=O)C(O)=C1O [PA, ascorbyl palmitate]
fluorescence intensity (fluorescent material taken up into the cell) [4]: 58%

Compound: Dioleoylephosphatidylethanolamine mercaptopropionyl (isopropylacrylamide/dimethylaminopropylacrylamide 5%) copolymer [DOPEMP (NIPAA/DMAPAA 5%) Cop]
lower critical dissolution temperature in water [8]: 40 °C
